Experimental data reported in patent US6355799B1, “Substituted benzene compounds, process for their preparation, and herbicidal and defoliant compositions containing them” (ISK Americas Incorporated, priority 1997, dated 2002).

Tests used:
Format in all cases: in vivo
[1] = system: velvetleaf (Abutilon theophrasti, ABUTH); experiment: Pre-emerge test, greenhouse herbicide activity screening; details: phytotoxicity rating 0-100, 14 days after application
In short: (§1)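 Compounds in acetone were track-sprayed at 15–1000 g ai/ha: pre-emergence onto soil sown the previous day, then top-watered to incorporate and later bottom-watered; post-emergence onto 2–3 leaf plants with 0.25% v/v surfactant, bottom-watered only. Ratings on a 0–100 phytotoxicity scale were taken at day 14.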

[2] = system: lambsquarters (Chenopodium album, CHEAL); experiment: as above; details: phytotoxicity rating 0-100, 14 days after application
In short: as §1

[3] = system: johnsongrass (Sorghum halepense, SORHA); experiment: as above; details: phytotoxicity rating 0-100, 14 days after application
In short: as §1

[4] = system: large crabgrass (Digitaria sanguinalis, DIGSA); experiment: as above; details: phytotoxicity rating 0-100, 14 days after application
In short: as §1

[5] = system: barnyardgrass (Echinochloa crus-galli, ECHCG); experiment: as above; details: phytotoxicity rating 0-100, 14 days after application
In short: as §1

[6] = system: green foxtail (Setaria viridis, SETVI); experiment: as above; details: phytotoxicity rating 0-100, 14 days after application
In short: as §1

[7] = system: sicklepod (Cassia obtusifolia, CASOB); experiment: as above; details: phytotoxicity rating 0-100, 14 days after application
In short: as §1

[8] = system: ivyleaf morningglory (Ipomoea hederacea, IPOHE); experiment: as above; details: phytotoxicity rating 0-100, 14 days after application
In short: as §1

[9] = system: field corn (Zea mays L., var. Dekalb 535, CORN); experiment: Post-emerge test, crop safety; details: post-emerge, 14 days after application, rating scale 0-100
In short: (§2)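 Rating: 0–100 visual injury, 14 DAA. Application: acetone, 187 l/ha, 15–1000 g ai/ha, flat-fan track sprayer with nozzle 40–45 cm above soil or canopy. Post-emerge runs used 0.25% v/v surfactant on 2–3 leaf plants.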

[10] = system: upland rice (Oryza sp., var. Tebonnet, RICE); experiment: Post-emerge test, crop safety; details: post-emerge, 14 days after application, rating scale 0-100
In short: as §2

[11] = system: field corn (Zea mays L., var. Dekalb 535, CORN); experiment: Pre-emerge test, crop safety; details: crop damage rating 0-100, 14 days after application
In short: (§3)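 Visual ratings on a 0-100 scale (0 no damage, 100 all plants dead) were taken at 14 days after treatment. Rates of 15-1000 g ai/ha in acetone, 187 l/ha, were sprayed onto soil one day after planting (pre-emerge) or onto 2-3 leaf plants with 0.25% v/v surfactant (post-emerge).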

[12] = system: upland rice (Oryza sp., var. Tebonnet, RICE); experiment: Pre-emerge test, crop safety; details: crop damage rating 0-100, 14 days after application
In short: as §3

[13] = system: velvetleaf (Abutilon theophrasti, ABUTH); experiment: Post-emerge test, greenhouse herbicide activity screening; details: post-emerge, 14 days after application, rating scale 0-100
In short: (§4)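 Plants grown in 10 cm pots of sandy loam mix received acetone-dissolved compounds through a moving flat-fan nozzle. Doses ranged from 15 to 1000 g ai/ha. Pre-emerge pots were seeded one day earlier, post-emerge pots 8–21 days earlier. Fourteen days on, each pot was graded 0–100 for damage.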

[14] = system: lambsquarters (Chenopodium album, CHEAL); experiment: as above; details: post-emerge, 14 days after application, rating scale 0-100
In short: as §4

[15] = system: johnsongrass (Sorghum halepense, SORHA); experiment: as above; details: post-emerge, 14 days after application, rating scale 0-100
In short: as §4

[16] = system: large crabgrass (Digitaria sanguinalis, DIGSA); experiment: as above; details: post-emerge, 14 days after application, rating scale 0-100
In short: as §4

[17] = system: barnyardgrass (Echinochloa crus-galli, ECHCG); experiment: as above; details: post-emerge, 14 days after application, rating scale 0-100
In short: as §4

[18] = system: green foxtail (Setaria viridis, SETVI); experiment: as above; details: post-emerge, 14 days after application, rating scale 0-100
In short: as §4

[19] = system: redroot pigweed (Amaranthus retroflexus, AMARE); experiment: as above; details: post-emerge, 14 days after application
In short: as §4

[20] = system: sicklepod (Cassia obtusifolia, CASOB); experiment: as above; details: post-emerge, 14 days after application, rating scale 0-100
In short: as §4

[21] = system: ivyleaf morningglory (Ipomoea hederacea, IPOHE); experiment: as above; details: post-emerge, 14 days after application, rating scale 0-100
In short: as §4

[22] = system: redroot pigweed (Amaranthus retroflexus, AMARE); experiment: Pre-emerge test, greenhouse herbicide activity screening; details: phytotoxicity rating 0-100, 14 days after application
In short: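 Compounds in acetone were track-sprayed at 187 l/ha, 15–1000 g ai/ha, onto sandy loam pots. Pre-emerge seeds were sown one day before spraying, with surface watering afterwards. Post-emerge plants were at the 2–3 leaf stage and sprayed with 0.25% v/v non-ionic surfactant. Injury was rated 0–100 at 14 days.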

[23] = 63 g ai/ha, rating scale 0-100 (0 no damage, 100 complete death)
[24] = 250 g ai/ha, rating scale 0-100

Structure (SMILES): COc1c(Cl)cc(F)c(-n2c(=O)cc(C(F)(F)F)n(C)c2=O)c1NC(=O)Oc1ccccc1C(C)(C)C [4-27]
- Pre-emerge Herbicidal Activity ABUTH ([1]; 63 g ai/ha): 80
- Pre-emerge Herbicidal Activity ABUTH ([1]; 250 g ai/ha): 100
- Pre-emerge Herbicidal Activity CHEAL ([2]; 63 g ai/ha): 80
- Pre-emerge Herbicidal Activity CHEAL ([2]; 250 g ai/ha): 100
- Pre-emerge Herbicidal Activity SORHA ([3]; 63 g ai/ha): 0
- Pre-emerge Herbicidal Activity SORHA ([3]; 250 g ai/ha): 0
- Pre-emerge Herbicidal Activity DIGSA ([4]; 63 g ai/ha): 0
- Pre-emerge Herbicidal Activity DIGSA ([4]; 250 g ai/ha): 0
- Pre-emerge Herbicidal Activity ECHCG ([5]; 63 g ai/ha): 0
- Pre-emerge Herbicidal Activity ECHCG ([5]; 250 g ai/ha): 0
- Pre-emerge Herbicidal Activity SETVI ([6]; 63 g ai/ha): 30
- Pre-emerge Herbicidal Activity SETVI ([6]; 250 g ai/ha): 50
- Pre-emerge Herbicidal Activity CASOB ([7]; 63 g ai/ha): 0
- Pre-emerge Herbicidal Activity CASOB ([7]; 250 g ai/ha): 30
- Pre-emerge Herbicidal Activity IPOHE ([8]; 63 g ai/ha): 20
- Pre-emerge Herbicidal Activity IPOHE ([8]; 250 g ai/ha): 50
- phytotoxicity rating CORN (crop damage) ([9]; 63 g ai/ha): 5
- phytotoxicity rating CORN (crop damage) ([9]; 250 g ai/ha): 10
- phytotoxicity rating RICE (crop damage) ([10]; 63 g ai/ha): 0
- phytotoxicity rating RICE (crop damage) ([10]; 250 g ai/ha): 10
- Pre-emerge Herbicidal Activity CORN ([11]; 63 g ai/ha): 0
- Pre-emerge Herbicidal Activity CORN ([11]; 250 g ai/ha): 0
- Pre-emerge Herbicidal Activity RICE ([12]; 63 g ai/ha): 10
- Pre-emerge Herbicidal Activity RICE ([12]; 250 g ai/ha): 50
- phytotoxicity rating ABUTH ([13]; 63 g ai/ha): 70
- phytotoxicity rating ABUTH ([13]; 250 g ai/ha): 100
- phytotoxicity rating CHEAL ([14]; 63 g ai/ha): 60
- phytotoxicity rating CHEAL ([14]; 250 g ai/ha): 100
- phytotoxicity rating SORHA ([15]; 63 g ai/ha): 0
- phytotoxicity rating SORHA ([15]; 250 g ai/ha): 0
- phytotoxicity rating DIGSA ([16]; 63 g ai/ha): 0
- phytotoxicity rating DIGSA ([16]; 250 g ai/ha): 0
- phytotoxicity rating ECHCG ([17]; 63 g ai/ha): 0
- phytotoxicity rating ECHCG ([17]; 250 g ai/ha): 0
- phytotoxicity rating SETVI ([18]; 63 g ai/ha): 0
- phytotoxicity rating SETVI ([18]; 250 g ai/ha): 10
- phytotoxicity rating AMARE [19, 23]: 60
- phytotoxicity rating AMARE [19, 24]: 80
- phytotoxicity rating CASOB ([20]; 63 g ai/ha): 20
- phytotoxicity rating CASOB ([20]; 250 g ai/ha): 40
- phytotoxicity rating IPOHE ([21]; 63 g ai/ha): 70
- phytotoxicity rating IPOHE ([21]; 250 g ai/ha): 80
- Pre-emerge Herbicidal Activity AMARE ([22]; 63 g ai/ha): 70
- Pre-emerge Herbicidal Activity AMARE ([22]; 250 g ai/ha): 100

Structure (SMILES): COc1c(Cl)cc(F)c(-n2c(=O)cc(C(F)(F)F)n(C)c2=O)c1NC(=O)OCc1ccc2ccccc2c1 [4-28]
- Pre-emerge Herbicidal Activity ABUTH ([1]; 63 g ai/ha): 20
- Pre-emerge Herbicidal Activity ABUTH ([1]; 250 g ai/ha): 60
- Pre-emerge Herbicidal Activity CHEAL ([2]; 63 g ai/ha): 70
- Pre-emerge Herbicidal Activity CHEAL ([2]; 250 g ai/ha): 100
- Pre-emerge Herbicidal Activity SORHA ([3]; 63 g ai/ha): 0
- Pre-emerge Herbicidal Activity SORHA ([3]; 250 g ai/ha): 0
- Pre-emerge Herbicidal Activity DIGSA ([4]; 63 g ai/ha): 0
- Pre-emerge Herbicidal Activity DIGSA ([4]; 250 g ai/ha): 0
- Pre-emerge Herbicidal Activity ECHCG ([5]; 63 g ai/ha): 0
- Pre-emerge Herbicidal Activity ECHCG ([5]; 250 g ai/ha): 0
- Pre-emerge Herbicidal Activity SETVI ([6]; 63 g ai/ha): 20
- Pre-emerge Herbicidal Activity SETVI ([6]; 250 g ai/ha): 60
- Pre-emerge Herbicidal Activity CASOB ([7]; 63 g ai/ha): 0
- Pre-emerge Herbicidal Activity CASOB ([7]; 250 g ai/ha): 0
- Pre-emerge Herbicidal Activity IPOHE ([8]; 63 g ai/ha): 0
- Pre-emerge Herbicidal Activity IPOHE ([8]; 250 g ai/ha): 0
- phytotoxicity rating CORN (crop damage) ([9]; 63 g ai/ha): 0
- phytotoxicity rating CORN (crop damage) ([9]; 250 g ai/ha): 5
- phytotoxicity rating RICE (crop damage) ([10]; 63 g ai/ha): 10
- phytotoxicity rating RICE (crop damage) ([10]; 250 g ai/ha): 15
- Pre-emerge Herbicidal Activity CORN ([11]; 63 g ai/ha): 0
- Pre-emerge Herbicidal Activity CORN ([11]; 250 g ai/ha): 0
- Pre-emerge Herbicidal Activity RICE ([12]; 63 g ai/ha): 0
- Pre-emerge Herbicidal Activity RICE ([12]; 250 g ai/ha): 15
- phytotoxicity rating ABUTH ([13]; 63 g ai/ha): 100
- phytotoxicity rating ABUTH ([13]; 250 g ai/ha): 100
- phytotoxicity rating CHEAL ([14]; 63 g ai/ha): 70
- phytotoxicity rating CHEAL ([14]; 250 g ai/ha): 90
- phytotoxicity rating SORHA ([15]; 63 g ai/ha): 0
- phytotoxicity rating SORHA ([15]; 250 g ai/ha): 10
- phytotoxicity rating DIGSA ([16]; 63 g ai/ha): 0
- phytotoxicity rating DIGSA ([16]; 250 g ai/ha): 20
- phytotoxicity rating ECHCG ([17]; 63 g ai/ha): 0
- phytotoxicity rating ECHCG ([17]; 250 g ai/ha): 20
- phytotoxicity rating SETVI ([18]; 63 g ai/ha): 10
- phytotoxicity rating SETVI ([18]; 250 g ai/ha): 30
- phytotoxicity rating AMARE [19, 23]: 80
- phytotoxicity rating AMARE [19, 24]: 100
- phytotoxicity rating CASOB ([20]; 63 g ai/ha): 50
- phytotoxicity rating CASOB ([20]; 250 g ai/ha): 50
- phytotoxicity rating IPOHE ([21]; 63 g ai/ha): 60
- phytotoxicity rating IPOHE ([21]; 250 g ai/ha): 80
- Pre-emerge Herbicidal Activity AMARE ([22]; 63 g ai/ha): 40
- Pre-emerge Herbicidal Activity AMARE ([22]; 250 g ai/ha): 70
